Key:
[1] = tested on: Salmonella typhimurium (Strain TA 100); test: Ames Salmonella/microsome mutagenic test with human S9 mix and mutagen 2-AA; assay type: cell-based
Method: Mutagenicity is evaluated following the Ames Salmonella mutagenic assay, a bacterial reverse mutation test using a histidine-dependent […] mutant of Salmonella typhimurium lacking both normal DNA repair mechanisms and the ability to grow on a histidine-free medium. See, D. R. Maron and B. Ames. Mutation Research. 1980. 113:173-215, incorporated herein by reference in its entirety. As one skilled in the art understands, the test assumes that DNA-altering chemicals cause mutations and that mutagenicity is closely associated with carcinogenicity. Induced mutations are estimated by the number of bacteria capable of growing on a histidine-free medium. […]
Colonies chosen to generate overnight cultures were grown in 5 ml nutrient broth #2 (Cat No. CM 0067; Oxid Products; Basingstone, Hampshire, UK) at […] to a density of 1-2×10^9 per ml (absorbance of 0.96±0.2 at 600 nm). […]
Test compounds with the S9 mix were incubated for 30 minutes at 37° C., filter sterilized (0.2 μm Acrodisc® V45W500; Pall Galman, Ann Arbor, Mich.), and divided into two 1.5 ml duplicate aliquots. […] Each aliquot was vortexed briefly and immediately poured on Petri dishes containing the minimal glucose agar (MGA) which were allowed to solidify, then inverted and incubated at 37° C. in the dark for 48 hours, after which revertant colonies on control and test plates were counted.

[2] = tested on: tumors induced by A. tumefaciens on potato discs; test: Potato disc tumor induction assay (Agrobacterium tumefaciens-induced tumors); assay type: cell-based, Solanium tuberosum L.
Method: Tumor suppression is evaluated following the well-known Agrobacterium tumor induction assay procedure. The assay depends on the unique property of Agrobacterium tumefaciens of inserting a portion of its tumor-inducing (Ti) plasmid into the chromosomal DNA of a wounded plant, causing tumor-like growths on the plant, a condition commonly known to those skilled in the art as Crown Gall disease. Antitumor potential is measured by tumor suppression on aseptic potato discs treated with the plant extract. See A. B. Galsky, et al. J. Nat. Cancer Inst. 1981. 67:689-692, incorporated herein by reference, in its entirety. Antitumor activity detected by the Agrobacterium assay is correlated with suppression of tumors in animals; thus, plant extracts that suppress Agrobacterium-induced tumor formation have significant potential as human anticarcinogens.
Antitumor effects of extracts were tested using the Potato Tumor Induction method of McLaughlin's laboratories. 1 A. tumefaciens was cultured in Difco Yeast Extract Medium for a period of 48-72 hours at […] for use in the assay. […]

| SMILES | revertant colonies formed in the presence of 2-AA ([1]; 2-AA alone (DMSO + S9), no extract) | colonies formed with 2-AA relative to the control ([1]; 991.6 versus control 48.2) | % INHIBITION (tumor) ([2]; parallel study, dilution 1:10,000, Table 2) | tumor inhibition ([2]; positive inhibitory control of the Table 1 study, camptothecin stock 100 μg/ml) |
| --- | --- | --- | --- | --- |
| Nc1ccc2cc3ccccc3cc2c1 [2-AA, 2-aminianthuracene] | 991.6 | approximately 20 fold |  |  |
| CC[C@@]1(O)C(=O)OCc2c1cc1n(c2=O)Cc2cc3ccccc3nc2-1 [camptothecin, Camptothecin] |  |  | 100% | 98.2% |

Source: US7691417B2, “Tumor and mutation suppressing plant extract” (Clemson University Research Foundation, priority 2004, dated 2010)
